Measured values as given in patent US9718825B2, “N-(4-(azaindazol-6-yl)-phenyl)-sulfonamides and their use as pharmaceuticals” (priority 2013, dated 2017).
Read-outs that look alike come from different tables or passages of the source.

What was measured:
[1] = biological target: recombinant human SGK-1 enzyme (Homo sapiens, UniProt O00141); experiment: Enzymatic activity assay: SGK-1 substrate peptide phosphorylation (Caliper lab-chip mobility shift); type: biochemical
Protocol: In one of the cellular assays, the SGK-1 dependent phosphorylation of glycogen synthase kinase 3beta (GSK3beta) in U2OS cells was measured, in another one, a functional electrophysiological assay, the SGK-1 dependent activation of epithelial Na^+ channel (ENaC) currents in A6 cell monolayers, and in another one chondrocyte hypertrophic differentiation in mouse chondrogenic ATDC5 cells.
A) Enzymatic Activity Assay
For the determination of the compound dose response, a 10 mM DMSO stock solution was diluted and tested in a ten-point, three-fold dilution series run in duplicate beginning at 30 μM final concentration. Data were analyzed using a four-parameter curve fit with a fixed minimum and maximum experimentally defined as the average positive and negative controls on each plate.

[2] = system: SGK-1 dependent phosphorylation of GSK3beta in U2OS cells; experiment: SGK-1 dependent phosphorylation of GSK3beta in U2OS cells overexpressing recombinant SGK-1 and GSK3beta; type: cell-based, human; settings: U2OS cells, 6 h incubation, ratio of phosphorylated GSK3beta to total GSK3beta, read-out: IC50 values for inhibition of SGK-1 dependent phosphorylation of GSK3beta in U2OS cells
Protocol: B) Determination of the Effect on SGK-1 Dependent Phosphorylation of GSK3beta in U2OS Cells
U2OS cells were cultured in 1:1 Dulbecco modified Eagle medium/Ham's F12 and 10% heat-inactivated fetal calf serum (FCS Gold) at 37° C., 7% CO2 and 95% relative humidity. […] Cell suspension mixed with BacMam viruses was seeded in 96 well pCLEAR plates (Greiner) at 3×10^4 cells per well in 250 μl medium. […] 1 μl of a solution of the test compound at 250×final concentration was added. Cells are incubated at 37° C., 7% CO2 and 95% relative humidity. […] After removing the fixation solution, cells were permeabilised by adding 200 μl PBT (0.2% Triton X-100 in PBS) per well for 5 min. After removing PBT, cells were blocked by adding 200 μl of blocking solution (1% bovine serum albumine in PBS) per well. Blocking solution was removed and 50 μl of primary antibody (rabbit anti-phospho-GSK-3beta (Ser9), and mouse anti-GSK-3beta) were added for 1 h. […] After washing the cells 3 times with PBS, 200 μl of PBS were added. Fluorescence signals were measured with the ImageXpress MICRO (Molecular Devices).

[3] = peptide substrate 1 μM, ATP 10 μM, 60 min at 37° C., read-out: IC50 values for inhibition of SGK-1 enzymatic activity

Chain of recombinant human SGK-1 enzyme (O00141 whole entry, looked up): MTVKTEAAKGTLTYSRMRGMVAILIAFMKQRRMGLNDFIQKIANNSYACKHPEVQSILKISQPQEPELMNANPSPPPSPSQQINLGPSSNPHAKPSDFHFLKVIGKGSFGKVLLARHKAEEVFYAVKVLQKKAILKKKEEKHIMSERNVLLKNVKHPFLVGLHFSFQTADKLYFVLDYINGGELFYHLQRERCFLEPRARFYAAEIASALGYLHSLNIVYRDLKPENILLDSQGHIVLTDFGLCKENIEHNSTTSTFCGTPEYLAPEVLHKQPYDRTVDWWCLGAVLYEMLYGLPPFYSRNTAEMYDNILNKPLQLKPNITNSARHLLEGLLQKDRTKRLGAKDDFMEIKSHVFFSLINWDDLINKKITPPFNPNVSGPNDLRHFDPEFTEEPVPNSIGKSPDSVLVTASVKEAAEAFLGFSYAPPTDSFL

| IC50 ([2]; Homo sapiens) [nM] | Structure (SMILES) | IC50 [1, 3] [nM] | IC50 [2] [nM] | IC50 ([1]; read-out: IC50 values for inhibition of SGK-1 enzymatic activity, peptide substrate 1 μM, ATP 10 μM, 60 min at 37° C.) [nM] |
| --- | --- | --- | --- | --- |
|  | O=S(=O)(Nc1ccc(-c2nc(O[C@@H]3CCCC[C@@H]3O)c3cn[nH]c3n2)cc1)c1cc(Cl)ccc1F (racemic) [Example 81] | 11 | 1700 |  |
|  | Cc1n[nH]c2nc(-c3ccc(NS(=O)(=O)c4cc(Cl)ccc4F)cc3)ncc12 [Example 10] | < 1.2 | 430 |  |
|  | O=S(=O)(Nc1ccc(-c2nc(N3CCNCC3)c3cn[nH]c3n2)cc1)c1cccc(Cl)c1Cl [Example 15] | < 1.2 | 870 |  |
|  | O=S(=O)(Nc1ccc(-c2nc(N3CCNCC3)c3cn[nH]c3n2)cc1)c1cc(Cl)ccc1F [Example 16] | < 1.2 | 950 |  |
|  | O=S(=O)(Nc1ccc(-c2nc(N3CCNCC3)c3cn[nH]c3n2)cc1)c1cc(Cl)ccc1Cl [Example 17] | < 1.2 | 810 |  |
|  | O=S(=O)(Nc1ccc(-c2nc(Oc3cccnc3)c3cn[nH]c3n2)cc1)c1cc(Cl)ccc1F [Example 26] | < 1.2 | 2600 |  |
|  | O=S(=O)(Nc1ccc(-c2nc(Oc3cccnc3)c3cn[nH]c3n2)cc1)c1cc(Cl)ccc1Cl [Example 27] | < 1.2 | 1900 |  |
|  | O=S(=O)(Nc1ccc(-c2nc(OCCCCO)c3cn[nH]c3n2)cc1)c1cc(Cl)ccc1F [Example 35] | 3.2 | 5700 |  |
|  | CC(C)(CO)COc1nc(-c2ccc(NS(=O)(=O)c3cc(Cl)ccc3F)cc2)nc2[nH]ncc12 [Example 57] | 8.3 | 500 |  |
|  | O=S(=O)(Nc1ccc(-c2nc(OC3CCC(O)C3)c3cn[nH]c3n2)cc1)c1cc(Cl)ccc1Cl (centres unmarked) [Example 60] | 4 | 480 |  |
|  | NCCCOc1nc(-c2ccc(NS(=O)(=O)c3cc(Cl)ccc3F)cc2)nc2[nH]ncc12 [Example 62] | < 1.2 | 450 |  |
|  | NCCCOc1nc(-c2ccc(NS(=O)(=O)c3cc(Cl)ccc3Cl)cc2)nc2[nH]ncc12 [Example 63] | < 1.2 | 280 |  |
|  | NCCCOc1nc(-c2ccc(NS(=O)(=O)c3cccc(Cl)c3Cl)cc2)nc2[nH]ncc12 [Example 64] | 4.2 | 560 |  |
|  | O=S(=O)(Nc1ccc(-c2nc(N3CCC(O)CC3)c3cn[nH]c3n2)cc1)c1cc(Cl)ccc1Cl [Example 74] | 5.5 | 1200 |  |
|  | O=S(=O)(Nc1ccc(-c2nc(OC3CCC(O)C3)c3cn[nH]c3n2)cc1)c1cc(Cl)ccc1F (centres unmarked) [Example 75] | 4.8 | 250 |  |
|  | Cc1nc(-c2ccc(NS(=O)(=O)c3cc(Cl)ccc3Cl)cc2)nc2[nH]ncc12 [Example 76] | 5.7 | 3000 |  |
|  | O=S(=O)(Nc1ccc(-c2nc(N[C@H]3CC[C@@H](O)CC3)c3cn[nH]c3n2)cc1)c1cc(Cl)ccc1F [Example 77] | 3.9 | 3600 |  |
|  | O=S(=O)(Nc1ccc(-c2nc(N[C@H]3CC[C@@H](O)CC3)c3cn[nH]c3n2)cc1)c1cc(Cl)ccc1Cl [Example 78] | 3.6 | 2600 |  |
|  | O=S(=O)(Nc1ccc(-c2nc(O[C@H]3CC[C@@H](O)CC3)c3cn[nH]c3n2)cc1)c1cc(Cl)ccc1Cl [Example 80] | < 1.5 | 450 |  |
|  | O=S(=O)(Nc1ccc(-c2nc(O[C@H]3CCCC[C@H]3O)c3cn[nH]c3n2)cc1)c1cc(Cl)ccc1Cl [Example 82] | 12 | 2100 |  |
|  | O=S(=O)(Nc1ccc(-c2nc(O[C@H]3CCCC(O)C3)c3cn[nH]c3n2)cc1)c1cc(Cl)ccc1F (some centres unmarked) [Example 84] | 3.2 | 1200 |  |

| IC50 ([2]; Homo sapiens) [nM] | Structure (SMILES) | IC50 [1, 3] [nM] | IC50 [2] [nM] | IC50 ([1]; read-out: IC50 values for inhibition of SGK-1 enzymatic activity, peptide substrate 1 μM, ATP 10 μM, 60 min at 37° C.) [nM] |
| --- | --- | --- | --- | --- |
|  | O=S(=O)(Nc1ccc(-c2nc(O[C@H]3CCCC(O)C3)c3cn[nH]c3n2)cc1)c1cc(Cl)ccc1Cl (some centres unmarked) [Example 85] | 4.1 | 1500 |  |
|  | CC(C)(O)CCCOc1nc(-c2ccc(NS(=O)(=O)c3cc(Cl)ccc3F)cc2)nc2[nH]ncc12 [Example 86] | 11 | 1800 |  |
|  | O=S(=O)(Nc1ccc(-c2nc(O[C@@H]3CCC[C@H]3O)c3cn[nH]c3n2)cc1)c1cc(Cl)ccc1F [Example 87] | 6.8 | 4100 |  |
|  | O=S(=O)(Nc1ccc(-c2nc(O[C@@H]3CCC[C@H]3O)c3cn[nH]c3n2)cc1)c1cc(Cl)ccc1Cl [Example 88] | 6.7 | 4500 |  |
|  | O=S(=O)(Nc1ccc(-c2nc(SCCCO)c3cn[nH]c3n2)cc1)c1cc(Cl)ccc1Cl [Example 89] | < 1.5 | 100 |  |
|  | COc1ccc(Cl)c(S(=O)(=O)Nc2ccc(-c3nc(OC4CCC(O)CC4)c4cn[nH]c4n3)cc2)c1 (centres unmarked) [Example 90] | 2.2 | 200 |  |
|  | COc1ccc(Cl)c(S(=O)(=O)Nc2ccc(-c3nc(O[C@@H]4CCC(O)C4)c4cn[nH]c4n3)cc2)c1 (some centres unmarked) [Example 91] | < 1.5 | 180 |  |
|  | Cc1ccc(F)c(S(=O)(=O)Nc2ccc(-c3nc(OC4CCC(O)CC4)c4cn[nH]c4n3)cc2)c1 (centres unmarked) [Example 92] | 2.1 | 180 |  |
|  | Cc1ccc(C#N)c(S(=O)(=O)Nc2ccc(-c3ncc4c(C)n[nH]c4n3)cc2)c1 [Example 93] | 2400 | 3300 |  |
|  | Cc1ccc(F)c(S(=O)(=O)Nc2ccc(-c3ncc4c(C)n[nH]c4n3)cc2)c1 [Example 95] | < 1.5 | 4600 |  |
| 50 | CC(C)Oc1nc(-c2ccc(NS(=O)(=O)c3cc(Cl)ccc3F)c(F)c2)nc2[nH]nc(N)c12 [Example 444, N-[4-(3-Amino-4-isopropoxy-1H-pyrazolo[3,4-d]pyrimidin-6-yl)-2-fluoro-phenyl]-5-chloro-2-fluoro-benzenesulfonamide] |  |  |  |
| 340 | Nc1n[nH]c2nc(-c3ccc(NS(=O)(=O)c4cc(Cl)c(F)cc4F)cc3)ncc12 [Example 445, N-[4-(3-Amino-1H-pyrazolo[3,4-d]pyrimidin-6-yl)-phenyl]-5-chloro-2,4-difluoro-benzenesulfonamide] |  |  |  |
| 4900 | Cc1n[nH]c2nc(-c3ccc(NS(=O)(=O)c4cc(Cl)c(F)cc4F)cc3)ncc12 [Example 449, 5-Chloro-2,4-difluoro-N-[4-(3-methyl-1H-pyrazolo[3,4-d]pyrimidin-6-yl)-phenyl]-benzenesulfonamide] |  |  |  |
| 1800 | COc1ccc(Cl)c(S(=O)(=O)Nc2ccc(-c3ncc4c(C)n[nH]c4n3)cc2F)c1 [Example 533, 2-Chloro-N-[2-fluoro-4-(3-methyl-1H-pyrazolo[3,4-d]pyrimidin-6-yl)-phenyl]-5-methoxy-benzenesulfonamide] |  |  |  |
| 3100 | Cc1nc(-c2ccc(NS(=O)(=O)c3cc(Cl)ccc3Cl)cc2)nc2[nH]nc(NC(=O)C3CC(O)C3)c12 (centres unmarked) [Example 536, 3-Hydroxy-cyclobutanecarboxylic acid {6-[4-(2,5-dichloro-benzenesulfonylamino)-phenyl]-4-methyl-1H-pyrazolo[3,4-d]pyrimidin-3-yl}-amide] |  |  |  |
| 73 | Cc1nc(-c2ccc(NS(=O)(=O)c3cc(Cl)ccc3Cl)cc2)nc2[nH]nc(NC(=O)C3CCOCC3)c12 [Example 545, N-[6-[4-[(2,5-Dichlorophenyl)sulfonylamino]phenyl]-4-methyl-1H-pyrazolo[3,4-d]pyrimidin-3-yl]tetrahydropyran-4-carboxamide] |  |  |  |
| 1100 | O=C(Nc1n[nH]c2nc(-c3ccc(NS(=O)(=O)c4cc(Cl)ccc4Cl)cc3)ncc12)C1CCNCC1 [Example 546, N-[6-[4-[(2,5-Dichlorophenyl)sulfonylamino]phenyl]-1H-pyrazolo[3,4-d]pyrimidin-3-yl]piperidine-4-carboxamide] |  |  |  |
| 4000 | Cc1nc(-c2ccc(NS(=O)(=O)c3cc(Cl)ccc3Cl)cc2)nc2[nH]nc(NCC3CCOCC3)c12 [Example 547, 2,5-Dichloro-N-(4-{4-methyl-3-[(tetrahydro-pyran-4-ylmethyl)-amino]-1H-pyrazolo[3,4-d]pyrimidin-6-yl}-phenyl)-benzenesulfonamide] |  |  |  |
| 6400 | Cc1ccc(C#N)c(S(=O)(=O)Nc2ccc(-c3cc4[nH]nc(N)c4cn3)cc2)c1 [Example 553, N-[4-(3-Amino-1H-pyrazolo[4,3-c]pyridin-6-yl)phenyl]-2-cyano-5-methyl-benzenesulfonamide] |  |  |  |
| 170 | Nc1n[nH]c2nc(-c3ccc(NS(=O)(=O)c4cc(Cl)ccc4F)cc3)nc(C(F)(F)F)c12 [Example 568, N-[4-(3-Amino-4-trifluoromethyl-1H-pyrazolo[3,4-d]pyrimidin-6-yl)-phenyl]-5-chloro-2-fluoro-benzenesulfonamide] |  |  |  |

| Structure (SMILES) | IC50 ([2]; Homo sapiens) [nM] | IC50 [1, 3] [nM] | IC50 [2] [nM] | IC50 ([1]; read-out: IC50 values for inhibition of SGK-1 enzymatic activity, peptide substrate 1 μM, ATP 10 μM, 60 min at 37° C.) [nM] |
| --- | --- | --- | --- | --- |
| Cc1n[nH]c2nc(-c3ccc(NS(=O)(=O)c4cc(Cl)ccc4Cl)cc3)ncc12 [Example 1, 2,5-Dichloro-N-[4-(3-methyl-1H-pyrazolo[3,4-d]pyrimidin-6-yl)-phenyl]-benzenesulfonamide] | 830 |  |  | < 1.2 |
